# Literature values, collected in US5665379A, “Lipid particle forming matrix, preparation and use thereof” (priority 1990, dated 1997).
smiles,measurement,value
CCCCCCCCCCCCCCCC(=O)OC(CC(=O)[O-])C[N+](C)(C)C (stereo not shown) [palmitoylcarnitine],Absorption enhancement in the gut (in words),acts as an absorption enhancer
